Where no end group is shown, it is not given here.
Tests used:
[1] = test system: Human Primary Melanocytes; assay: Trypan blue dye exclusion toxicity on human primary melanocytes; format: cell-based; conditions: for cell death: 1 millimolar, 72 hours of incubation, melanocytes; for % toxicity: trypan blue
Description: (§1) Cellular toxicity was measured using a trypan blue dye exclusion assay. Cells were cultured in 6-well plates at a density of 4×10^5 cells per well. […] After 24 hours, an aliquot was taken and cells counted using a hemacytometer. Cytotoxicity was measured according to the following formula: […]
(§2) The same procedure was repeated after 3 and 6 days of incubation.

mouse melanoma cells = conditions: for cell death / cytotoxicity: 3 millimolar, incubation for 3 days, MTT (FIG. 4); for cytotoxicity to mouse melanoma (figure): treated with 3 millimolar, figure vs untreated
Description: (§3) Human and mouse melanoma cell lines as wells as Fibroblasts were cultured using DMEM with L-glutamine, 10 percent FBS and 1 percent P/S (Thermo Fisher Scientific, NY). Human melanocytes were cultured using medium 254 (Thermo Fisher Scientific, NY) and incubated at 37 degrees Celsius in a humidified 5 percent CO2 chamber.
(§4) Proliferation rates were determined using a TACS® MTT Cell Proliferation Kit (R&D Systems, Minneapolis, Minn.). Cells were seeded at 2.5×10 ^4 per well in 96-well plates in a humidified atmosphere with 5 percent CO2 at 37 degrees Celsius. Twenty-four hours later, oligopeptides or hydroquinone were added to the corresponding wells at varying concentrations (0.03, 0.1, 0.3, 1, and 3 millimolar (mM)), and cultures were incubated for 72 hours. The remainder of the procedure was performed following the manufacturer's protocol.

[2] = test system: human epidermal keratinocytes; assay: Cytotoxicity towards human epidermal keratinocytes (figures); format: cell-based; conditions: normal human epidermal keratinocytes, 3 millimolar in figure
Description: Human neonatal epidermal keratinocytes were cultured in Epilife media containing 60 μM of calcium chloride (Thermo Fisher Scientific, NY). All cell cultures were incubated in a humidified chamber at 37 degrees Celsius and 5 percent CO2.
The figures show human epidermal keratinocytes with 3 millimolar P5, human epidermal keratinocytes with 3 millimolar P14, and human epidermal keratinocytes with 3 millimolar HQ.

[3] = test system: human metastatic melanoma line harboring the V600E BRAF mutation; assay: MTT cell proliferation and viability assay, human melanoma cells
Description: as §3, §4

Human Fibroblasts = assay: Trypan blue dye exclusion toxicity on human fibroblasts; format: cell-based; conditions: for cell death: 1 millimolar, 72 hours of incubation, fibroblasts; for % toxicity: trypan blue
Description: as §1, §2

## Oc1ccc(O)cc1 [HQ, Hydroquinone, reference compound]
[1]
  cell death: 100%
[1]; Day 1, 10 μM
  % toxicity: 27%
[1]; Day 1, 30 μM
  % toxicity: 41%
[1]; Day 1, 100 μM
  % toxicity: 98%
[1]; Day 1, 300 μM
  % toxicity: 100%
[1]; Day 1, 1000 μM
  % toxicity: 100%
[1]; Day 3, 10 μM
  % toxicity: 29%
[1]; Day 3, 30 μM
  % toxicity: 53%
[1]; Day 3, 100 μM
  % toxicity: 100%
[1]; Day 3, 300 μM
  % toxicity: 100%
[1]; Day 3, 1000 μM
  % toxicity: 100%
[1]; Day 6, 10 μM
  % toxicity: 35%
[1]; Day 6, 30 μM
  % toxicity: 60%
[1]; Day 6, 100 μM
  % toxicity: 100%
[1]; Day 6, 300 μM
  % toxicity: 100%
[1]; Day 6, 1000 μM
  % toxicity: 100%
Mouse melanoma cells
  cell death / cytotoxicity: 90%
[2]
  cytotoxic effects towards keratinocytes: indiscriminate cytotoxicity
[3]; human, 72 h, 1 mM
  cytotoxicity: ~80%
Human Fibroblasts
  cell death: 100%
Human Fibroblasts; Day 1, 30 μM
  % toxicity: 3%
Human Fibroblasts; Day 1, 100 μM
  % toxicity: 17%
Human Fibroblasts; Day 1, 300 μM
  % toxicity: 27%
Human Fibroblasts; Day 1, 1000 μM
  % toxicity: 100%
Human Fibroblasts; Day 1, 3000 μM
  % toxicity: 100%
Human Fibroblasts; Day 3, 30 μM
  % toxicity: 9%
Human Fibroblasts; Day 3, 100 μM
  % toxicity: 20%
Human Fibroblasts; Day 3, 300 μM
  % toxicity: 44%
Human Fibroblasts; Day 3, 1000 μM
  % toxicity: 100%
Human Fibroblasts; Day 3, 3000 μM
  % toxicity: 100%
Human Fibroblasts; Day 6, 30 μM
  % toxicity: 15%
Human Fibroblasts; Day 6, 100 μM
  % toxicity: 30%
Human Fibroblasts; Day 6, 300 μM
  % toxicity: 54%
Human Fibroblasts; Day 6, 1000 μM
  % toxicity: 100%
Human Fibroblasts; Day 6, 3000 μM
  % toxicity: 100%

## CC(C)CC(NC(=O)C1CCCN1)C(=O)NCC(=O)O (centres unmarked) [P5, PLG]
[1]
  cell death: 9%
[1]; Day 1, 30 μM
  % toxicity: 0.1%
[1]; Day 1, 100 μM
  % toxicity: 0.1%
[1]; Day 1, 300 μM
  % toxicity: 2.2%
[1]; Day 1, 1000 μM
  % toxicity: 7.8%
[1]; Day 1, 3000 μM
  % toxicity: 13.3%
[1]; Day 3, 30 μM
  % toxicity: 0.1%
[1]; Day 3, 100 μM
  % toxicity: 0.1%
[1]; Day 3, 300 μM
  % toxicity: 2.4%
[1]; Day 3, 1000 μM
  % toxicity: 8.7%
[1]; Day 3, 3000 μM
  % toxicity: 13.5%
[1]; Day 6, 30 μM
  % toxicity: 0.1%
[1]; Day 6, 100 μM
  % toxicity: 0.1%
[1]; Day 6, 300 μM
  % toxicity: 2.7%
[1]; Day 6, 1000 μM
  % toxicity: 9.3%
[1]; Day 6, 3000 μM
  % toxicity: 14.5%
Mouse melanoma cells
  cytotoxicity to mouse melanoma (figure): selectively cytotoxic
[2]
  cytotoxic effects towards keratinocytes: very little to no cytotoxic effects
Human Fibroblasts
  cell death: 3%
Human Fibroblasts; Day 1, 10 μM
  % toxicity: 0.1%
Human Fibroblasts; Day 1, 30 μM
  % toxicity: 0.1%
Human Fibroblasts; Day 1, 100 μM
  % toxicity: 0.1%
Human Fibroblasts; Day 1, 300 μM
  % toxicity: 0.1%
Human Fibroblasts; Day 1, 1000 μM
  % toxicity: 2.1%
Human Fibroblasts; Day 3, 10 μM
  % toxicity: 0.1%
Human Fibroblasts; Day 3, 30 μM
  % toxicity: 0.1%
Human Fibroblasts; Day 3, 100 μM
  % toxicity: 0.1%
Human Fibroblasts; Day 3, 300 μM
  % toxicity: 0.5%
Human Fibroblasts; Day 3, 1000 μM
  % toxicity: 2.6%
Human Fibroblasts; Day 6, 10 μM
  % toxicity: 0.1%
Human Fibroblasts; Day 6, 30 μM
  % toxicity: 0.1%
Human Fibroblasts; Day 6, 100 μM
  % toxicity: 0.1%
Human Fibroblasts; Day 6, 300 μM
  % toxicity: 1.1%
Human Fibroblasts; Day 6, 1000 μM
  % toxicity: 3.9%

## RRFVLL [P14, RRFVLL]
Mouse melanoma cells
  cell death / cytotoxicity: 49%
  cytotoxicity to mouse melanoma (figure): selectively cytotoxic
[2]
  cytotoxic effects towards keratinocytes: very little to no cytotoxic effects
[3]; 1 millimolar, human melanoma cells, MTT (FIG. 5)
  cytotoxicity: ~36%
[3]; treated with 3 millimolar, figure vs untreated
  cytotoxicity to human melanoma (figure): selectively cytotoxic
